This is an account of results in US20230365568A1, “PLK1 POLO BOX DOMAIN INHIBITORS AND METHOD OF TREATING CANCER” (The United States of America,as represented by the …, priority 2020, published 2023).

Broadly, the IC50 is the point on the concentration scale where inhibition reaches its midpoint. Low readings indicate higher potency, high ones lower potency. In general, inhibition refers to how much of the control response was suppressed.

Read-outs that look alike come from different tables or passages of the source.

Series [1] is described as follows: In vitro stability in mice (mouse liver microsome assay). It is filed as in vitro ADME. The settings on record: liver microsomes, pH 7.4, read-out: t1/2 in vitro. On the procedure: The reaction was stopped by an aliquot of 200 μL of ice-cold acetonitrile after 60 min. After centrifugation at 14 000×g for 10 min, a 5 μL aliquot of the supernatant was injected into a UHPLC-[…]. […] A trace amount of the subsequent glucuronide of the demethylated metabolite was also seen in the serum, as it could be promptly excreted from the liver to the bile, once generated, and can then undergo enterohepatic circulation through which the demethylated product is reabsorbed to the circulation. This could also serve as an explanation for the increased demethylated metabolite at the last time point.

In series [2] the target is T1, PBD of Plk1 (Homo sapiens (Human), UniProt P53350). The settings on record: Gunasekaran et al., 2020; cited from earlier work.
T1 sequence (P53350 326-603): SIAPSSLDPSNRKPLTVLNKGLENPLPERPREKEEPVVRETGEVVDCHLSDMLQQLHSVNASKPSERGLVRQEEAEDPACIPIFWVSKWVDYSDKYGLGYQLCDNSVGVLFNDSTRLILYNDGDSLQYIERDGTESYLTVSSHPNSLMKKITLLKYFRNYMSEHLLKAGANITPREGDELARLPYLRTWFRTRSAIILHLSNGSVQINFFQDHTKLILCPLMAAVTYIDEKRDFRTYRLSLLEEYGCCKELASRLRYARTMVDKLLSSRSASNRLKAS
Another series addresses full-length human Plk1 (Homo sapiens (Human), UniProt P53350). Description: ELISA-based Plk1 PBD-binding inhibition assay. The settings on record: Plk1 PBD; n = 3 unless noted. The method, then:
An ELISA-based PBD-binding inhibition assay was performed essentially as described previously. […] The wells were washed once with PBS+0.05% Tween20 (PBST) and incubated with 200 μl of PBS plus 1% BSA (blocking buffer) for 1 h to prevent non-specific binding. HEK293A lysates expressing HA-EGFP-Plk1 were prepared in a TBSN [20 mM Tris-HCl (pH 8.0), 150 mM NaCl, 0.5% NP-40, 5 mM EGTA, 2 mM MgCl2, 1.5 mM EDTA, and protease inhibitor cocktail (Roche)]+20% DMSO buffer (˜20 μg total lysates in 100 μl buffer), mixed with the indicated amount of the competitors (p-T78 peptide and its derivative compounds) for 30 min, provided onto the biotinylated peptide-coated ELISA wells, and then incubated with constant rocking for 1 h at 25° C. Following the incubation, ELISA plates were washed 5 times with PBST. To detect bound HA-EGFP-Plk1, the plates were probed for 2 h with 100 μl/well of anti-HA antibody at a concentration of 0.5 μg/ml in the blocking buffer and then washed 5 times. The plates were further probed for 1 h with 100 μl/well of HRP-conjugated secondary antibody (GE Healthcare) at a 1:1,000 dilution in the blocking buffer. The plates were washed 5 times with PBST and incubated with 100 μl/well of 3,3′,5,5′-tetramethylbenzidine solution (Sigma-Aldrich, St. Louis, MO) as substrate until a desired absorbance was reached. The reactions were stopped by the addition of 100 μl/well of stop solution (Cell Signaling Technology, Danvers, MA). The optical density (O.D.) was measured at 450 nm by using a Perkin-Elmer Enspire Multimode Plate reader (PerkinElmer, Inc., Boston, MA). Data obtained from more than three independent experiments were analyzed by GraphPad (San Diego, CA) Prism software version 7.
ELISA-based PBD-binding Inhibition Assay. […] The reaction products were measured at 450 nm by using a Perkin-Elmer Enspire Multimode Plate reader (PerkinElmer, Inc., Boston, MA). Data obtained from more than three independent experiments were analyzed by GraphPad (San Diego, CA) Prism software version 7.
On the technique in general: An ELISA detects its analyte on a solid surface through an enzyme-linked reagent.

Series [3] has as its system Plk1 localization to centrosomes and kinetochores in HeLa cells. As to the kind of experiment: Immunostaining of Plk1 localization and spindle morphology in HeLa cells. Conditions: 100 μM; for inhibition at 100 µM: Homo sapiens. It is filed as cell-based. The method, then:
HeLa cells were cultured as recommended by the American Type Culture Collection (ATCC). Asynchronously growing cells were treated with control DMSO or the indicated concentration of 143. To reveal chromosome morphologies, cells were treated with 4′,6-diamidino-2-phenylindole (DAPI), fixed, and subjected to confocal microscopy. Immunostaining was carried out using anti-Plk1 (Santa Cruz Biotechnology, Santa Cruz, CA), anti-Cep63 (MilliporeSigma), anti-CREST (Antibodies Incorp, Davis, CA), and anti-α-tubulin (Sigma, St. Louis, MO) antibodies. Confocal images were acquired using a Zeiss LSM780 equipped with a plan-apochromat 63× (N.A. 1.4) oil-immersion objective lens, 34-channel GaAsP spectral detector (Carl Zeiss Microscopy, LLC.), and 8-bit, 0.5-μm z-steps.
(§1) To quantify fluorescence signal intensities, images were acquired under the same settings and the images obtained after the maximum-intensity projection of z-stacks were analyzed using the Zeiss ZEN v2.1 software (Carl Zeiss Microscopy, LLC). All the quantifications were performed with randomly chosen fields from at least three independent experiments. All values are given as mean±s. D. P values were calculated by unpaired t test from the mean data of each group in Graph Pad Prism (***P<0.001). The statistical details including the definitions and value of n (e.g., number of experimental replicates, cells, etc.) And standard deviations are provided herein.
To directly examine whether the observed mitotic arrest was the consequence of inhibiting Plk1 PBD function, immunostaining analysis was carried out to determine the ability of intracellular Plk1 to localize to centrosomes and kinetochores, an event that requires PBD-mediated protein-protein interaction (Lee et al., Trends Pharmacol. Sci. 36, 858-877 (2015); and Elia et al., Cell 115, 83-95 (2003)). […] A short treatment time (i.e., 2 h), which was intended to minimize a potential indirect effect of these inhibitors, was sufficient to delocalize greater than 70% of Plk1 signals from centrosomes (marked by anti-Cep63 signals) and 90% of those from kinetochores (marked by anti-CREST signals).

The nature of series [4]: Stability in human liver microsomes. It is filed as in vitro ADME. The settings on record: read-out: t1/2 Human LM. For orientation: Liver microsomes are vesicles of endoplasmic reticulum, rich in cytochrome P450 enzymes.
A short description of series [5]: Stability in mouse liver microsomes. The series is classed as in vitro ADME. Conditions: read-out: t1/2 Mouse LM.
Series [6] in a line: Stability in rat liver microsomes (Table 10). It is filed as in vitro ADME. Conditions: read-out: t1/2 Rat LM.
Series [7] in a line: Stability in human cytosol. It is filed as in vitro ADME. The settings on record: read-out: t1/2 Human cytosol.
The nature of series [8]: Stability in mouse cytosol. It is filed as in vitro ADME. The settings on record: read-out: t1/2 Mouse cytosol.
The next series is described as follows: Stability in rat cytosol. It is filed as in vitro ADME. Conditions: read-out: t1/2 Rat cytosol.
Series [9] is described as follows: In vivo mouse pharmacokinetics, intraperitoneal. The settings on record: mice. On the procedure: The National Cancer Institute Animal Care and Use Committee approved all animal experiments conducted in this study.
In the in vivo mouse pharmacokinetics study, 6-8-week-old male C57BL/6 mice were selected for metabolite profiling. In brief, 200 μL/20 g mice of WA (20 mg/kg dissolved in 5% DMSO and 5% Tween 80-contained saline) was administered intraperitoneally to mice. Control mice were treated with saline containing 5% DMSO and 5% Tween 80 alone. […] Blood samples were collected by retro-orbital bleeding at 4 h postdose. After centrifugation for 10 min at 14 000×g, serum was obtained and prepared by mixing 20 μL serum with 180 μL 50% aqueous acetonitrile. After centrifugation at 14 000×g for 20 min, a 5 μL aliquot of the supernatants was injected into a Waters UPLC-ESI-QTOFMS system (Waters Corporation, Milford, MA).

The test system of series [10] is HeLa cells. Description: Mitotic arrest and antiproliferation in HeLa cells (DAPI staining, cell counts). The series is classed as cell-based. Conditions: 100 μM. The method, then:
HeLa cells were cultured as recommended by the American Type Culture Collection (ATCC). […] Immunostaining was carried out using anti-Plk1 (Santa Cruz Biotechnology, Santa Cruz, CA), anti-Cep63 (MilliporeSigma), anti-CREST (Antibodies Incorp, Davis, CA), and anti-α-tubulin (Sigma, St. Louis, MO) antibodies.
as §1

A short description of another series: Aqueous solubility. Conditions: for Solub.: aqueous solubility.
A short description of series [11]: Microsomal metabolic stability, rat liver microsomes (RLM). The settings on record: rat liver microsomes.
Another series deals with PBD of Plk2 (Homo sapiens (Human), UniProt Q9NYY3). Description: Fluorescence polarization (FP)-based PBD inhibition assay, Plk2. The series is classed as binding. On the procedure: (§2) FP assays were carried out essentially as described previously (Qian, ibid). […] All experiments were performed in triplicate for each sample.
Chain of PBD of Plk2 (Q9NYY3 355-685): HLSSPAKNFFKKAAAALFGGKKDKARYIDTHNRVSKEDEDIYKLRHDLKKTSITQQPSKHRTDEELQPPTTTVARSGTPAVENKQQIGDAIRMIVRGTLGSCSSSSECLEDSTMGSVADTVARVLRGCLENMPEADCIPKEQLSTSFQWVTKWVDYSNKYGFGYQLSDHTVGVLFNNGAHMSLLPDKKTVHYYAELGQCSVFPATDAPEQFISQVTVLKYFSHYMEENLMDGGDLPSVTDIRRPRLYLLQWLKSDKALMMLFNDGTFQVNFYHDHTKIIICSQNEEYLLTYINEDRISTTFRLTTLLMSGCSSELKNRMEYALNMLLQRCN
(§3) PBD Fluorescence Polarization (FP) Binding Assays for Plk1 specificity. […] All experiments were performed in triplicate for each sample.
(In general: Polarisation of emitted light reports the rotation of a fluorescent probe.)

The target in another series is PBD of Plk3 (Homo sapiens (Human), UniProt Q9H4B4). As to the kind of experiment: Fluorescence polarization (FP)-based PBD inhibition assay, Plk3. The series is classed as binding. The method, then:
as §2, §3

Another series concerns CYP3A. As to the kind of experiment: Mouse liver microsome assay with CYP-specific inhibitors. It is filed as in vitro ADME. The settings on record: mouse liver microsomes. The method, then:
In Vitro MLM Assay. Incubations of the mouse liver microsome (MLM) samples were performed in duplicate. Reactions (200 μL final volume) were conducted in 50 mM potassium phosphate buffer, 3 mM MgCl2 (pH 7.4), 1 mg/mL MLM protein, and 2.5 μM test compound with or without 50 μM inhibitor. The mixture was preincubated at 37° C. for 3 min and initiated with 4 mM NADPH. At the serial time of the incubation, 20 μL of the mixture was added to ice-cold 80 μL of 90% acetonitrile including 4 μM of 4 followed by a 25 min incubation on ice and centrifugation at 14,000×g for 10 min. 40 μL of supernatant was diluted with 20 μL of water, and a 5 μL aliquot was injected into the UPLC-QTOF system.
To evaluate metabolic stability information, S-methyl 51 and 5-thio-1-methyl-4-nitroimidazolyl 73 prodrugs were administered orally in male C57BL/6 mice via gavage 50 mg/kg or 20 mg/kg, respectively. […] The AUCs of 14 were 523,200 mg-h/L and 317,600 mg-h/L in 50 mg/kg and 20 mg/kg doses, respectively. Compound 14 was further metabolized by glucuronidation. […] The presence of the 9-F group impeded the hydroxylation, compared to the PK studies in Alverez et al. (J. Med. Chem. 63, 14087-14117 (2020)).

Series [12] deals with HeLa cells. The settings on record: cancer cells in vitro; Alverez et al., 2020; cited from earlier work.
In series [13] the target is T1, PBD of Plk1. Description: Fluorescence polarization (FP)-based PBD inhibition assay, Plk1. It is filed as binding. The method, then: as §2, §3

Chain of full-length human Plk1 (P53350 whole entry): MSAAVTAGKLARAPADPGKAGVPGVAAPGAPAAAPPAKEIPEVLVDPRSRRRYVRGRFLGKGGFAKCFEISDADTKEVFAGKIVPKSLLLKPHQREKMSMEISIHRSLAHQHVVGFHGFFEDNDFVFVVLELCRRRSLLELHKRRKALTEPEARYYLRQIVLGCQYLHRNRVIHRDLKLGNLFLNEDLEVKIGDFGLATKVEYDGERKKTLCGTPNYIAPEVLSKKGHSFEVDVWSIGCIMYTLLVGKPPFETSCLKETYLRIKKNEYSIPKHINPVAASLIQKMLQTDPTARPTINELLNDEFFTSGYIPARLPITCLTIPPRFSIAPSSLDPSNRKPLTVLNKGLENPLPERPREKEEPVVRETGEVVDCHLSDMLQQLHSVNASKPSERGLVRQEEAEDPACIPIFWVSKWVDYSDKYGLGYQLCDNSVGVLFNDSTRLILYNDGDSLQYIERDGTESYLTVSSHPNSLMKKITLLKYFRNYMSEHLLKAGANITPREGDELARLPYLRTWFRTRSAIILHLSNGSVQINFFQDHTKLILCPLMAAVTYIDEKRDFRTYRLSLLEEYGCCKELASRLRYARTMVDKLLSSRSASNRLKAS
Chain of PBD of Plk3 (Q9H4B4 335-646): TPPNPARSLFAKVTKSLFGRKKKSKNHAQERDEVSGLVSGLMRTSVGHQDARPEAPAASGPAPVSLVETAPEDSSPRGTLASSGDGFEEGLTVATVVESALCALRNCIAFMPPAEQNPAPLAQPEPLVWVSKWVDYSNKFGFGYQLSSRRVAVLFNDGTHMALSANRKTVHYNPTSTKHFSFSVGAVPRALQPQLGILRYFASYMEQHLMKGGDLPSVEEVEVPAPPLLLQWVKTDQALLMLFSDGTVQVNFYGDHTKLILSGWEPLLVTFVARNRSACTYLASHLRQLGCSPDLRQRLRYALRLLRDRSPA

As to `CCCn1c(=O)c2cccc(F)c2n2c(SC)nnc12` [compound 145, 9-fluoro-1-(methylthio)-4-propyl-[1,2,4]triazolo[4,3-a]quinazolin-5(4H)-one], the half-life at 20 µM in [1] was found to be 21.8 ± 6.03 min.
As for `CNc1ccc(C(=O)NCCn2cc(C=C3C(=O)NC(=O)NC3=O)c(-c3ccccc3)n2)cc1` [KBJK557], the “cross-reactivity among Plk1-3 PBDs” value at PBD of Plk1 [2] is “considerable cross-reactivities among Plk1-3 PBDs”.
For `CCCn1c(=O)c2ccccc2n2c(SC)nnc12` [compound 143, 1-(methylthio)-4-propyl-[1,2,4]triazolo[4,3-a]quinazolin-5(4H)-one], at full-length human Plk1, the IC50 was over 50 µM. For the same molecule, the spindle bipolarity result in series [3] is given as “significantly compromised”. The inhibition at 100 µM in series [3] (read-out: inhibition of Plk1 localization to centrosomes) is about 20%; in [3] (read-out: inhibition of Plk1 localization to kinetochores) it was about 50%. Besides, the half-life is 16.8 min in series [4]; 3.77 min in series [5]; 9.41 min in series [6]; over 120 min in [7]; over 120 min in [8]; over 120 min in “Stability in rat cytosol”. For the same molecule, the half-life in [9] (male, C57BL/6, mouse, serum, ip, 20 mg/kg, in vivo, intraperitoneal, read-out: t1/2 in vivo) came out at 28.7 ± 8.3 min. Moreover, the half-life at 20 µM in [1] was found to be 11.4 ± 3.49 min. Besides, the metabolites in serum result in series [9] (≥15 min post-injection) is “both the hydroxylated and demethylated products were detected in the serum”.
`CCCn1c(=O)c2ccccc2n2c(=S)[nH]nc12` [compound 21, 4-propyl-1-thioxo-2,4-dihydro-[1,2,4]triazolo[4,3-a]quinazolin-5(1H)-one] yielded an IC50 at full-length human Plk1 of 1.03 ± 0.08 µM. The “induction of mitotic arrest (rounded cells with apoptotic or aberrant chromosome morphologies)” value in the series with HeLa cells [10] is listed as “lacked a detectable level of cellular response”. Also, the half-life (in series [4]; in series [5]; in series [6]; in series [7]; in series [8]; in the series “Stability in rat cytosol”) was over 120 min throughout. The half-life in series [11] was over 30 min. In addition, in the series “Aqueous solubility”, the “Solub.” value was determined as 21.3 µg/mL.
As for `O=c1c2cc(F)ccc2n2c(=S)[nH]nc2n1CC1CC1` [compound 79], the “PAMPA” value is 46.0 ×10⁻⁶ cm/s. Moreover, at PBD of Plk2, the “inhibition of Plk2 PBD, FP assay” value was “failed to exhibit any detectable level of inhibition”. The “inhibition of Plk3 PBD, FP assay” value against PBD of Plk3 was “failed to exhibit any detectable level of inhibition”. Moreover, in “Aqueous solubility”, the solubility entry was “moderate to good solubility” and the “Solub.” value was found to be 16.2 µg/mL. For the same molecule, the “t1/2 (min, RLM)” value in [11] is reported as over 30 min.
As for `CC(=O)NCCCn1c(=O)c2cc(F)ccc2n2c(=S)[nH]nc12` [compound 73], the “PAMPA” value was 18.0 ×10⁻⁶ cm/s. In addition, in the series on CYP3A, the “sensitivity of conversion to 14 to ketoconazole (CYP3A inhibitor)” value is listed as “refractory to ketoconazole treatment”. The “Solub.” value in the series “Aqueous solubility” is over 50 µg/mL. Also, in series [11], the “t1/2 (min, RLM)” value was over 30 min.
As to `CSc1nnc2n(CCc3ccccc3)c(=O)c3ccccc3n12` [Example 6, 1-(methylthio)-4-phenethyl-[1,2,4]triazolo[4,3-a]quinazolin-5(4H)-one], in the series on HeLa cells [12], the “concentration required to induce mitotic arrest and affect proliferation” value is over 100 µM.
As for PLHST [6b], the “activity in FP-based assay” value on PBD of Plk1 [13] is “no detectable activity”.
